From ChEMBL document CHEMBL3751678, “Stabilizing G-quadruplex DNA by methylazacalix[n]pyridine through shape-complementary interaction” (Bioorg Med Chem Lett, 2016)

Legend:
[1] = Stabilization of c-kit G-quadruplex DNA (unknown origin) assessed as change in melting temparature by circular dichroism analysis
[2] = Stabilization of TBA G-quadruplex DNA (unknown origin) assessed as change in melting temparature by circular dichroism analysis
[3] = species on record: Homo sapiens; experiment: Stabilization of human T12 G-quadruplex DNA assessed as change in melting temparature by circular dichroism analysis
[4] = Stabilization of Bcl2 G-quadruplex DNA (unknown origin) assessed as change in melting temparature by circular dichroism analysis
[5] = species on record: Homo sapiens; experiment: Stabilization of human H12 G-quadruplex DNA assessed as change in melting temparature by circular dichroism analysis

SMILES | ΔTm [1] [°C] | ΔTm [2] [°C] | ΔTm [3] [°C] | ΔTm [4] [°C] | ΔTm [5] [°C]
CN1c2cccc(n2)N(C)c2cccc(n2)N(C)c2cccc(n2)N(C)c2cccc1n2 | 0 | 0 | 0 | 0 | 0
Cn1c2cccc(n2)n(C)c2cccc(n2)n(C)c2cccc(n2)n(C)c2cccc(n2)n(C)c2cccc(n2)n(C)c2cccc1n2 | 0 | 0 | 4 | 0 | 7
CN1c2cccc(n2)N(C)c2cccc(n2)N(C)c2cccc(n2)N(C)c2cccc(n2)N(C)c2cccc(n2)N(C)c2cccc(n2)N(C)c2cccc(n2)N(C)c2cccc1n2 | 0 | 0 | 0 | 0 | 0
CN1c2cccc(n2)N(C)c2cccc(n2)N(C)c2cccc(n2)N(C)c2cccc(n2)N(C)c2cccc(n2)N(C)c2cccc(n2)N(C)c2cccc(n2)N(C)c2cccc(n2)N(C)c2cccc1n2 | 0 | 0 | 0 | 0 | 0
CN1c2cccc(n2)N(C)c2cccc(n2)N(C)c2cccc(n2)N(C)c2cccc(n2)N(C)c2cccc(n2)N(C)c2cccc(n2)N(C)c2cccc1n2 | 0 | 0 | 0 | 0 | 0
